Structures can show the parent of a compound that is named as a salt.
Assays:
mice = test: Toxicity Study; assay type: in vivo; conditions: intraperitoneally or orally administered at 400 mg/kg
Description: TAN-1756A caused no death in mice when it was intraperitoneally or orally administered at 400 mg/kg.
TAN-1803 monohydrochloride caused no death in mice when it was intraperitoneally or orally administered at 400 mg/kg.

[1] = test system: bone resorption as enhanced by PTH (parathyroid hormone) in femurs from female BALB/c mice; test: Determination of Bone Resorption Suppressive Activity (PTH-enhanced, calcium release from cultured femurs); assay type: cell-based; conditions: 168 h; test compound 10 μg/ml, PTH 1 μM, 7 days, mouse femurs
Description: Compounds (I), (XI) and (XXI) or salts thereof excellently suppress bone resorption. Their suppressive action against bone resorption as enhanced by PTH (parathyroid hormone) was determined by the method described below.
Femurs were aseptically isolated from female BALB/c mice at 8-10 weeks of age. After the bone marrow cavity was washed with a Ham F12 medium containing 10% (w/w) thermally inactivated fetal calf serum, 100 unit/ml penicillin G and 100 unit/ml streptomycin (hereinafter referred to as culture broth), each femur was added to 1 ml of the culture broth and precultured for 3 hours at 37° C. in the presence of 5% carbon dioxide and 95% air. Each bone was transferred to 1 ml of the culture broth supplemented with PTH (produced by Peptide Institute, Inc., final concentration 1 μM) and the test compound (final concentration 10 μg/ml) and cultured for 7 more days, after which the total calcium content in the culture broth was determined using Calcium E-Test Wako (produced by Wako Pure Chemical Industries). The bone resorption suppressive activity of the test compound was calculated using the following equation:
Bone resorption suppressive activity (%)=100×(Cp-Cs)/(Cp-Cc)
Cc: Total calcium content in the culture broth containing neither PTH nor test compound
Cp: Total calcium content in the culture broth containing PTH […]

cathepsin B = molecular target: T1, cathepsin B (Homo sapiens, UniProt P07858); test: Determination of Cathepsin B Inhibitory Activity; assay type: biochemical; conditions: cathepsin B (Sigma), Z-Phe-Arg-7MCA substrate, pH 5.5, 37° C., 20 minutes; read-out: Inhibitory activity potency IC50 Cathepsin B (converted)
T1 construct: purchased Sigma
Description: To 75 μl of a reaction mixture containing 30 ng of cathepsin B (produced by Sigma), 2 μM DTT, 1 mM ethylenediaminetetraacetate disodium salt, 0.1M sodium acetate buffer (pH 5.5) and various concentrations of sample, 25 μl of 20 μM Z-Phe-Arg-7MCA was added to initiate the reaction. After reaction mixture incubation at 37° C. for 20 minutes, 100 μl of a reaction stopper solution containing 100 mM sodium monochloroacetate was added. The amount of liberated 4-methyl-7-aminocoumarin was determined at an excitation wavelength of 365 nm and a fluorescence wavelength of 450 nm, using a fluorophotometer. The sample concentration required to cause 50% inhibition was expressed as the IC50 value, with the fluorescence value obtained from the same reaction in the absence of the sample taken as 100%.

[2] = molecular target: T2, human recombinant cathepsin L (Homo sapiens, UniProt P07711); test: Determination of Cathepsin L Inhibitory Activity; assay type: biochemical; conditions: Z-Phe-Arg-7MCA substrate, pH 5.5, 37° C., 20 minutes, read-out: Inhibitory activity potency IC50 Cathepsin L (converted)
T2 construct: made in house; host or cells: mouse myeloma Sp2/0 cells transformed with pTBN-HCLneo (Sp-HCL26), secreted into the culture supernatant
Description: To 75 μl of a reaction mixture containing 1 ng of human recombinant cathepsin L (as produced in Reference Examples 1 through 7 below), 2 μM dithiothreitol (hereinafter referred to as DTT), 1 mM ethylenediaminetetraacetate disodium salt, 0.1M sodium acetate buffer (pH 5.5) and various concentrations of sample, 25 μl of 20 μM benzyloxycarbonyl-L-phenylalanyl-L-arginine-4-methylcoumaryl-7-amide (hereinafter referred to as Z-Phe-Arg-7MCA, produced by Peptide Institute, Inc.) was added to initiate the reaction. After incubation at 37° C. for 20 minutes, 100 μl of a reaction stopper solution containing 100 mM sodium monochloroacetate was added. The amount of liberated 4-methyl-7-aminocoumarin was determined at an excitation wavelength of 365 nm and a fluorescence wavelength of 450 nm, using a fluorophotometer (FCA; produced by Baxter). The sample concentration required to cause 50% inhibition was expressed as the IC50 value, with the fluorescence value obtained from the same reaction in the absence of the sample taken as 100%.

T2 sequence (P07711 114-333): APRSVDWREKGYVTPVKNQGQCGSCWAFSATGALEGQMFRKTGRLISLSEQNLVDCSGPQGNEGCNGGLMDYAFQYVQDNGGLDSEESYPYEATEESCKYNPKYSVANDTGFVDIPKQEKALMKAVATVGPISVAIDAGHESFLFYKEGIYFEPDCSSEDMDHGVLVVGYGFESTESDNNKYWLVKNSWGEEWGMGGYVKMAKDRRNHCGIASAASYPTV

| IC50 (cathepsin B) | IC50 [2] | SMILES | death in mice (mice) | activity at 10 µg/mL [1] |
| --- | --- | --- | --- | --- |
| – | – | NCCCCNC(=O)[C@H](Cc1ccccc1)NC(=O)[C@H]1O[C@@H]1C(=O)O [Compound 1, N-{N-[(2S,3S)-3-trans-carboxyoxirane-2-carbonyl]-L-phenylalanyl}-1,4-diaminobutane] | no death | 150% |
| 59.2 nM | 4.93 nM | NCCCCCCCCNC(=O)[C@H](Cc1ccccc1)NC(=O)[C@H]1O[C@@H]1C(=O)O [Compound 23, N-(N-[(2S,3S)-3-trans-carboxyoxirane-2-carbonyl]-L-phenylalanyl}-1,8-diaminooctane] | – | – |
| 27.9 nM | 1.99 nM | O=C(NCCCCNC(=O)[C@H](Cc1ccccc1F)NC(=O)[C@H]1O[C@@H]1C(=O)O)OCc1ccccc1 [Compound 37] | – | – |
| 85.3 nM | 5.02 nM | O=C(O)[C@H]1O[C@@H]1C(=O)N[C@@H](Cc1ccc2ccccc2c1)C(=O)N1CCOCC1 [Compound 82, N-{N-[(2S,3S)-3-trans-carboxyoxirane-2-carbonyl]-3-(2-naphthyl)-L-alanyl}morpholine monosodium salt] | – | – |
| – | – | CC(C)C[C@H](NC(=O)[C@H]1O[C@@H]1C(=O)O)C(=O)N(CCCN)CCCCN [Compound 92, N-{N-[(2S,3S)-3-trans-carboxyoxirane-2-carbonyl]-L-leucyl}-N-(3-aminopropyl)-1,4-diaminobutane] | no death | 149% |

Reference: patent US5556853A, “Epoxysuccinic acid derivatives” (Takeda Chemical Industries, Ltd., priority 1993, dated 1996)
